According to patent US7618816B2, “Metal-binding therapeutic peptides” (Ontherix, Inc., priority 2005, dated 2009):

Key:
SR = assay: Uptake of SA-HRP::MBD peptide complexes; assay type: cell-based
Description: (§1) HEK293 kidney cell line and 54 tumor cell lines obtained from the National Cancer Institute and passaged in RPMI1640 cell culture medium supplemented with 10% fetal bovine serum and 10 uM FeCl2. Uptake of streptavidin-horseradish peroxidase (SA-HRP) conjugate and of various SA-HRP::MBD peptide complexes was determined as described (Singh et al. J Biol Chem. 279 (1):477-87 [2004]) using biotinylated MBD9 ([…]) (SEQ ID NO: 10) and MBD21 ([…]) (SEQ ID NO: 4) peptides and SA-HRP. Nuclear and cytoplasmic localization of these proteins was also determined in each case. […] In order to establish the underlying molecular mechanism for this variability, we cross-linked MBD21 peptide to the following cell surface markers at 4 degrees Celsius as previously described (Singh et al. J Biol Chem. 279 (1):477-87 [2004]): transferrin receptor 1, caveolin 1, PCNA, integrins alpha v, 2, 5 and 6, integrins beta 1, 3 and 5. […] Based on the strength of these correlations, it was possible to derive crude predictive formulae for MBD-mediated uptake based on the rate of cross-linking to surface markers. Such predictive formulas could form the basis for a diagnostic procedure to select appropriate targets for MBD-based therapies.

K562 = assay: Uptake of SA-HRP::MBD peptide complexes; assay type: cell-based
Description: as §1

PAN 02 = assay: Uptake of SA-HRP::MBD peptide complexes; assay type: cell-based
Description: as §1

HEK 293 = assay: Uptake of SA-HRP::MBD peptide complexes; assay type: cell-based
Description: as §1

435 = assay: Uptake of SA-HRP::MBD peptide complexes; assay type: cell-based
Description: as §1

CCRF-SB = assay: Uptake of SA-HRP::MBD peptide complexes; assay type: cell-based
Description: as §1

COLON 26 = assay: Uptake of SA-HRP::MBD peptide complexes; assay type: cell-based
Description: as §1

54 tumor cell lines = assay: Uptake of SA-HRP::MBD peptide complexes, median of the survey; assay type: cell-based; conditions: median over tumor cell lines
Description: as §1

KM12 = assay: Uptake of SA-HRP::MBD peptide complexes; assay type: cell-based, human
Description: as §1

OVCAR-8 = assay: Uptake of SA-HRP::MBD peptide complexes; assay type: cell-based, human
Description: as §1

231 = assay: Uptake of SA-HRP::MBD peptide complexes; assay type: cell-based, human
Description: as §1

EKVX = assay: Uptake of SA-HRP::MBD peptide complexes; assay type: cell-based, human
Description: as §1

HS 913T = assay: Uptake of SA-HRP::MBD peptide complexes; assay type: cell-based, human
Description: as §1

HOP 62 = assay: Uptake of SA-HRP::MBD peptide complexes; assay type: cell-based, human
Description: as §1

SK-0V-3 = assay: Uptake of SA-HRP::MBD peptide complexes; assay type: cell-based, human
Description: as §1

IGR-OV1 = assay: Uptake of SA-HRP::MBD peptide complexes; assay type: cell-based, human
Description: as §1

DU-145 = assay: Uptake of SA-HRP::MBD peptide complexes; assay type: cell-based, human
Description: as §1

BT-549 = assay: Uptake of SA-HRP::MBD peptide complexes; assay type: cell-based, human
Description: as §1

COLO 205 = assay: Uptake of SA-HRP::MBD peptide complexes; assay type: cell-based, human
Description: as §1

OVCAR-5 = assay: Uptake of SA-HRP::MBD peptide complexes; assay type: cell-based, human
Description: as §1

HOP 18 = assay: Uptake of SA-HRP::MBD peptide complexes; assay type: cell-based, human
Description: as §1

MX-1 = assay: Uptake of SA-HRP::MBD peptide complexes; assay type: cell-based, human
Description: as §1

MOLT4 = assay: Uptake of SA-HRP::MBD peptide complexes; assay type: cell-based, human
Description: as §1

NCI-H226 = assay: Uptake of SA-HRP::MBD peptide complexes; assay type: cell-based, human
Description: as §1

CCRF-CEM = assay: Uptake of SA-HRP::MBD peptide complexes; assay type: cell-based, human
Description: as §1

HCT-15 = assay: Uptake of SA-HRP::MBD peptide complexes; assay type: cell-based, human
Description: as §1

CAKI-1 = assay: Uptake of SA-HRP::MBD peptide complexes; assay type: cell-based, human
Description: as §1

CHA-59 = assay: Uptake of SA-HRP::MBD peptide complexes; assay type: cell-based, human
Description: as §1

WIDR = assay: Uptake of SA-HRP::MBD peptide complexes; assay type: cell-based, human
Description: as §1

RPMI 8226 = assay: Uptake of SA-HRP::MBD peptide complexes; assay type: cell-based, human
Description: as §1

A704 = assay: Uptake of SA-HRP::MBD peptide complexes; assay type: cell-based, human
Description: as §1

NCI-H522 = assay: Uptake of SA-HRP::MBD peptide complexes; assay type: cell-based, human
Description: as §1

KKGFYKKKKQCRPSKGRKRGFCWNGRK [MBD9]
SA-HRP uptake, Cyt. (SR; cytoplasmic): 24.4 ng | SA-HRP uptake, Nuc. (SR; nuclear): 0.0 ng | SA-HRP uptake, Cyt. (K562; K562, cytoplasmic): 2.6 ng | SA-HRP uptake, Nuc. (K562; K562, nuclear): 1.3 ng | SA-HRP uptake, Cyt. (PAN 02; PAN 02, cytoplasmic): 25.8 ng | SA-HRP uptake, Nuc. (PAN 02; PAN 02, nuclear): 7.0 ng | SA-HRP uptake, Cyt. (HEK 293; HEK 293, cytoplasmic): 20.2 ng | SA-HRP uptake, Nuc. (HEK 293; HEK 293, nuclear): 20.1 ng | SA-HRP uptake, Cyt. (435; 435, cytoplasmic): 8.6 ng | SA-HRP uptake, Nuc. (435; 435, nuclear): 2.7 ng | SA-HRP uptake, Cyt. (CCRF-SB; cytoplasmic): 2.6 ng | SA-HRP uptake, Nuc. (CCRF-SB; nuclear): 0.6 ng | SA-HRP uptake, Cyt. (COLON 26; COLON 26, cytoplasmic): 11.3 ng | SA-HRP uptake, Nuc. (COLON 26; COLON 26, nuclear): 2.3 ng | SA-HRP uptake, Cyt. (ng), Median (54 tumor cell lines; cytoplasmic): 7.4 ng | SA-HRP uptake, Nuc. (ng), Median (54 tumor cell lines; nuclear): 1.8 ng | SA-HRP uptake, Cyt. (KM12; KM12, cytoplasmic): 3.6 ng | SA-HRP uptake, Nuc. (KM12; KM12, nuclear): 1.0 ng | SA-HRP uptake, Cyt. (OVCAR-8; OVCAR-8, cytoplasmic): 3.9 ng | SA-HRP uptake, Nuc. (OVCAR-8; OVCAR-8, nuclear): 5.0 ng | SA-HRP uptake, Cyt. (231; 231, cytoplasmic): 9.6 ng | SA-HRP uptake, Nuc. (231; 231, nuclear): 2.6 ng | SA-HRP uptake, Cyt. (EKVX; cytoplasmic): 7.2 ng | SA-HRP uptake, Nuc. (EKVX; nuclear): 4.2 ng | SA-HRP uptake, Cyt. (HS 913T; cytoplasmic): 3.4 ng | SA-HRP uptake, Nuc. (HS 913T; nuclear): 1.1 ng | SA-HRP uptake, Cyt. (HOP 62; HOP 62, cytoplasmic): 12.0 ng | SA-HRP uptake, Nuc. (HOP 62; HOP 62, nuclear): 0.9 ng | SA-HRP uptake, Cyt. (SK-0V-3; SK-0V-3, cytoplasmic): 2.0 ng | SA-HRP uptake, Nuc. (SK-0V-3; SK-0V-3, nuclear): 0.4 ng | SA-HRP uptake, Cyt. (IGR-OV1; IGR-OV1, cytoplasmic): 7.0 ng | SA-HRP uptake, Nuc. (IGR-OV1; IGR-OV1, nuclear): 2.6 ng | SA-HRP uptake, Cyt. (DU-145; DU-145, cytoplasmic): 3.1 ng | SA-HRP uptake, Nuc. (DU-145; DU-145, nuclear): <0.04 ng | SA-HRP uptake, Cyt. (BT-549; BT-549, cytoplasmic): 7.2 ng | SA-HRP uptake, Nuc. (BT-549; BT-549, nuclear): 2.1 ng | SA-HRP uptake, Cyt. (COLO 205; COLO 205, cytoplasmic): 2.9 ng | SA-HRP uptake, Nuc. (COLO 205; COLO 205, nuclear): 0.9 ng | SA-HRP uptake, Cyt. (OVCAR-5; OVCAR-5, cytoplasmic): 2.7 ng | SA-HRP uptake, Nuc. (OVCAR-5; OVCAR-5, nuclear): 1.2 ng | SA-HRP uptake, Cyt. (HOP 18; HOP 18, cytoplasmic): 16.6 ng | SA-HRP uptake, Nuc. (HOP 18; HOP 18, nuclear): 8.1 ng | SA-HRP uptake, Cyt. (MX-1; MX-1, cytoplasmic): 10.8 ng | SA-HRP uptake, Nuc. (MX-1; MX-1, nuclear): 3.1 ng | SA-HRP uptake, Cyt. (MOLT4; MOLT4, cytoplasmic): 12.7 ng | SA-HRP uptake, Nuc. (MOLT4; MOLT4, nuclear): 0.0 ng | SA-HRP uptake, Cyt. (NCI-H226; NCI-H226, cytoplasmic): 2.6 ng | SA-HRP uptake, Nuc. (NCI-H226; NCI-H226, nuclear): 1.8 ng | SA-HRP uptake, Cyt. (CCRF-CEM; cytoplasmic): 46.2 ng | SA-HRP uptake, Nuc. (CCRF-CEM; nuclear): 1.8 ng | SA-HRP uptake, Cyt. (HCT-15; HCT-15, cytoplasmic): 4.0 ng | SA-HRP uptake, Nuc. (HCT-15; HCT-15, nuclear): 0.8 ng | SA-HRP uptake, Cyt. (CAKI-1; CAKI-1, cytoplasmic): 7.4 ng | SA-HRP uptake, Nuc. (CAKI-1; CAKI-1, nuclear): 1.8 ng | SA-HRP uptake, Cyt. (CHA-59; CHA-59, cytoplasmic): 24.7 ng | SA-HRP uptake, Nuc. (CHA-59; CHA-59, nuclear): 9.7 ng | SA-HRP uptake, Cyt. (WIDR; cytoplasmic): 3.4 ng | SA-HRP uptake, Nuc. (WIDR; nuclear): 0.7 ng | SA-HRP uptake, Cyt. (RPMI 8226; RPMI 8226, cytoplasmic): 6.5 ng | SA-HRP uptake, Nuc. (RPMI 8226; RPMI 8226, nuclear): 0.0 ng | SA-HRP uptake, Cyt. (A704; A704, cytoplasmic): 10.9 ng | SA-HRP uptake, Nuc. (A704; A704, nuclear): 1.8 ng | SA-HRP uptake, Cyt. (NCI-H522; NCI-H522, cytoplasmic): 9.1 ng | SA-HRP uptake, Nuc. (NCI-H522; NCI-H522, nuclear): 3.7 ng
